The first data set can be described thus: solvent given as SMILES. Conditions: in CN(C)C=O.
`CC[N+]1(CC)CN2C(C)=CC(C)=C(C(=O)O)C2=N1` displayed an emission maximum of 449 nm.

The compound `CCn1c2ccccc2c2cc(-c3cc(-c4ccc5c(c4)c4ccccc4n5CC)nc(-c4ccc(C#N)cc4)n3)ccc21` displayed an emission maximum of 422 nm.

The data set is the same for the next values; noted with them: in CNC=O.
Compound `COCCOCCOc1ccc(OCCOCCOC)c(C=O)c1` gave an emission maximum of 458 nm.

The same data set, now with this note: in CO.
`COc1ccc(-c2nc(N)nc(C#N)c2C#N)cc1OC` registered an emission maximum of 442 nm. Same read-out and setting: the result for `COCCOCCOc1ccc(OCCOCCOC)c(C=O)c1` reads 468 nm; that for `Cc1nn(-c2ccccc2)c(C2=NN(c3ccc(Br)cc3)[C@@H](c3ccccc3)[C@@H]2c2ccccc2)c1C#N`, 496 nm.

The compound `COc1ccc(/N=N/c2c(O)c3ccccc3n(C)c2=O)c(S(=O)(=O)O)c1` had an emission maximum of 532 nm. On the same count and under the same terms, the result for `COC(=O)C(NC(=O)OC(C)(C)C)c1ccc2oc(-c3ccc(C#N)cc3)nc2c1` (stereo not given) reads 385 nm. `CN(C)c1ccc2nc(-c3ccc(C(=O)OC[C@H](NC(=O)OC(C)(C)C)C(=O)OCc4ccccc4)cc3)sc2c1` gave an emission maximum of 577 nm.

The data set is the same for the next values; noted with them: in CS(C)=O.
`COc1ccc(/N=N/c2c(O)c3ccccc3n(C)c2=O)c(S(=O)(=O)O)c1`: the emission maximum stood at 548 nm. Compound `CN(C)c1ccc2nc(-c3ccc(C(=O)OC[C@H](NC(=O)OC(C)(C)C)C(=O)OCc4ccccc4)cc3)sc2c1` returned an emission maximum of 583 nm.

Still in this data set, the particulars now being: in Cc1ccccc1.
On to `O=Cc1nc2ccc(C#Cc3ccc(N(c4ccc(C#Cc5ccc6nc(C=O)sc6c5)cc4)c4ccc(C#Cc5ccc6nc(C=O)sc6c5)cc4)cc3)cc2s1`, for which the emission maximum was 500 nm.

`N#Cc1c(-n2c3ccccc3c3cc(Br)ccc32)c(-n2c3ccccc3c3cc(Br)ccc32)c(C#N)c(-n2c3ccccc3c3cc(Br)ccc32)c1-n1c2ccccc2c2cc(Br)ccc21`: the emission maximum turned out to be 543 nm.

Take `COc1ccc(/N=N/c2c(O)c3ccccc3n(C)c2=O)c(S(=O)(=O)O)c1`: the emission maximum was 519 nm. As to `COc1ccc2c(c1)c1cc(OC)ccc1n2-c1ccc2c(c1)-c1cc(-n3c4ccc(OC)cc4c4cc(OC)ccc43)ccc1P2(=O)c1ccccc1`, the emission maximum is 476 nm.

Compound `c1ccc2c(c1)Oc1ccccc1B2c1ccc(N2c3ccccc3Oc3ccccc32)cc1` displayed an emission maximum of 522 nm. Still for that read-out and setting: in the case of `CC(C)c1cc(C(C)C)c(B2c3ccccc3Oc3cc(N4c5ccccc5C5(c6ccccc6Oc6ccccc65)c5ccccc54)ccc32)c(C(C)C)c1` it was 451 nm; in that of `CCn1c2ccccc2c2cc(-c3cc(-c4ccc5c(c4)c4ccccc4n5CC)nc(-c4ccc(C#N)cc4)n3)ccc21`, 388 nm; in that of `N#Cc1cccc(C#N)c1-n1c2ccccc2c2cc(-c3ccc4c(c3)c3ccccc3n4-c3c(C#N)cccc3C#N)ccc21`, 488 nm.

Still in this data set, the particulars now being: in ClC(Cl)Cl.
`O=C1[C@@H]2[C@H](C(=O)N1c1cccc3cc4ccccc4cc13)[C@H]1C[C@@H]2c2c1c(-c1ccccc1)c1ccccc1c2-c1ccccc1` displayed an emission maximum of 392 nm. Still for that read-out and setting: in the case of `CCOC(CN1C(=O)C2=C(c3cc4cc(C(C)(C)C)cc(C(C)(C)C)c4o3)N(CC(OCC)OCC)C(=O)C2=C1c1cc2cc(C(C)(C)C)cc(C(C)(C)C)c2o1)OCC` it was 594 nm; in that of `CCOc1ccc2c(-c3nc(-c4ccccc4F)no3)cc(=O)oc2c1`, 453 nm; in that of `c1ccc2c(c1)Oc1ccccc1C21c2cc(-c3ccc4ccc5cccc6ccc3c4c56)ccc2-c2ccc(-c3ccc4ccc5cccc6ccc3c4c56)cc21`, 422 nm. The same measure, in the same setting: the result for `CN(C)c1ccc2nc(-c3ccc(C(=O)OC[C@H](NC(=O)OC(C)(C)C)C(=O)OCc4ccccc4)cc3)sc2c1` reads 504 nm; that for `O=C1OC(=O)[C@H]2[C@@H]1[C@@H]1C[C@H]2c2c1c(-c1ccccc1)c1ccccc1c2-c1ccccc1`, 362 nm.

The same data set, now with this note: in ClCCl.
`COc1ccc2cc(C#CC3=C4CCc5ccccc5C4=[O+][B-](F)(F)O3)ccc2c1` returned an emission maximum of 566 nm. Same read-out and setting: the result for `COc1cc2c(cc1OC)C1=C[C@H](c3ccccc3)C3(C(C#N)=C(C#N)N1CC2)c1cc(Cl)ccc1-c1ccc(Cl)cc13` reads 389 nm. `CCN(CC)c1ccc(/C=N/CC/N=C/c2ccc(N(CC)CC)cc2O)c(O)c1` gave an emission maximum of 432 nm.

With `CCOC(=O)C1=C(C(=O)OCC)C2(c3ccccc3-c3ccccc32)[C@@H](c2ccc([N+](=O)[O-])cc2)C=C2c3cc(OC)c(OC)cc3CCN21`, the emission maximum was determined as 430 nm. The same measure, in the same setting: in the case of `COc1ccc(/N=N/c2c(O)c3ccccc3n(C)c2=O)c(S(=O)(=O)O)c1` it was 542 nm; in that of `c1ccc(N(c2ccccc2)c2ccc(-c3ccc(-c4ccc(N(c5ccccc5)c5ccccc5)cc4)c4nsnc34)cc2)cc1`, 639 nm. Same read-out and setting: in the case of `O=Cc1ccc(-c2ccc(-c3nc4ccccc4s3)c(O)c2)s1` it was 535 nm; in that of `CC(=O)c1ccc(-c2cc3c(ccc4sccc43)s2)cc1`, 430 nm; in that of `COC(=O)C1=C(C(=O)OC)C2(c3cc(Cl)ccc3-c3c(Cl)cc(Cl)cc32)C2(/C=C/c3ccccc3)c3cc(OC)c(OC)cc3CCN12` (stereo not given), 487 nm. Turning to `CC(C)[Si](C#Cc1c2ccccc2c(C#C[Si](C(C)C)(C(C)C)C(C)C)c2nc3ccccc3nc12)(C(C)C)C(C)C`, the emission maximum is reported as 609 nm.

As to `CCn1c2ccccc2c2cc(-c3cc(-c4ccc5c(c4)c4ccccc4n5CC)nc(-c4ccc(C#N)cc4)n3)ccc21`, the emission maximum was 417 nm.

The data set is the same for the next values; noted with them: in NC=O.
The compound `COCCOCCOc1ccc(OCCOCCOC)c(C=O)c1` displayed an emission maximum of 463 nm.

Staying with this data set, now noted: in O.
`COCCOCCOc1ccc(OCCOCCOC)c(C=O)c1`: the emission maximum was 485 nm. Still for that read-out and setting: the result for `Cc1nn(-c2ccccc2)c(C2=NN(c3ccc(Br)cc3)[C@@H](c3ccccc3)[C@@H]2c2ccccc2)c1C#N` reads 485 nm.

The compound `COc1ccc(/N=N/c2c(O)c3ccccc3n(C)c2=O)c(S(=O)(=O)O)c1` showed an emission maximum of 583 nm. In turn, `Cc1cc(N(C)C)ccc1C1=C2C=CC(=[N+](C)C)C=C2[Si](C)(C)c2cc(N(C)C)ccc21` displayed an emission maximum of 663 nm. The same measure, in the same setting: the result for `Clc1ccc2cc3cccc[n+]3cc2c1` reads 408 nm; that for `CC[N+]1(CC)CN2C(C)=CC(C)=C(C(=O)O)C2=N1`, 449 nm; that for `O=Cc1ccc(-c2ccc(-c3nc4ccccc4s3)c(O)c2)s1`, 557 nm.

As for `COc1ccc2c(c1)CCC1=C(c3ccccc3)C3=C(c4ccc5cccc(O)c5n4)c4c(-c5ccccc5)c5c(n4[B-](F)(F)[N+]3=C12)-c1ccc(OC)cc1CC5`, the emission maximum turned out to be 680 nm.

Staying with this data set, now noted: in O=P(c1ccccc1)(c1ccccc1)c1ccccc1Oc1ccccc1P(=O)(c1ccccc1)c1ccccc1.
Compound `N#Cc1cccc(C#N)c1-n1c2ccccc2c2cc(-c3ccc4c(c3)c3ccccc3n4-c3c(C#N)cccc3C#N)ccc21` came in with an emission maximum of 488 nm.

Staying with this data set, now noted: in OCCO.
For the compound `Cc1nn(-c2ccccc2)c(C2=NN(c3ccc(Br)cc3)[C@@H](c3ccccc3)[C@@H]2c2ccccc2)c1C#N`, the emission maximum worked out at 500 nm.

Still in this data set, the particulars now being: in c1ccc2c(c1)c1ccccc1n2-c1ccc(-c2ccc(-n3c4ccccc4c4ccccc43)cc2)cc1.
On to `COc1ccc2c(c1)c1cc(OC)ccc1n2-c1ccc2c(c1)-c1cc(-n3c4ccc(OC)cc4c4cc(OC)ccc43)ccc1P2(=O)c1ccccc1`, for which the emission maximum is reported as 490 nm.

The same data set, now with this note: in c1ccccc1.
Compound `CN(C)c1ccc2c(c1)-c1ccccc1C2=O` yielded an emission maximum of 526 nm. In the case of `CN(C)c1ccc2nc(-c3ccc(C(=O)OC[C@H](NC(=O)OC(C)(C)C)C(=O)OCc4ccccc4)cc3)sc2c1`, the emission maximum is recorded as 484 nm.
